ChEMBL document CHEMBL3885881, “DrugMatrix”

Organism: Rattus norvegicus
Test: DrugMatrix - Regimen: Daily Repeat
Type: toxicity, organism-based, Sprague-Dawley
Design: regimen Daily Repeat, gender Male, age 6-8 weeks
Conditions: in vivo, po, route oral GAVAGE, vehicle 100 % WATER; for ABSOLUTE BASOPHIL / ABSOLUTE EOSINOPHIL / ABSOLUTE LYMPHOCYTE / ABSOLUTE MONOCYTE / ABSOLUTE SEGMENTED NEUTROPHIL / BASOPHIL / EOSINOPHIL / ERYTHROCYTE COUNT / HEMATOCRIT / HEMOGLOBIN / LEUKOCYTE COUNT / LYMPHOCYTE / MEAN CORPUSCULAR HEMOGLOBIN / MEAN CORPUSCULAR HEMOGLOBIN CONCENTRATION / MEAN CORPUSCULAR VOLUME / MONOCYTE / NEUTROPHIL / NUCLEATED RED BLOOD CELLS / PLATELET COUNT: tissue Blood; for ALANINE AMINOTRANSFERASE / ALBUMIN / ALKALINE PHOSPHATASE / ASPARTATE AMINOTRANSFERASE / BLOOD UREA NITROGEN / CARBON DIOXIDE / CHLORIDE / CHOLESTEROL / CREATINE PHOSPHOKINASE / CREATININE / GLUCOSE / LACTATE DEHYDROGENASE / LIPASE / PHOSPHORUS / POTASSIUM / SODIUM / TOTAL BILIRUBIN / TOTAL PROTEIN / URIC ACID: tissue Plasma
[1] = 0 mg/kg, 72 h, dose level Control, time 3 day
[2] = 0 mg/kg, 120 h, dose level Control, time 5 day
[3] = 500 mg/kg, 72 h, dose level Low, time 3 day

## NCCCCCC(=O)O [AMINOCAPROIC ACID]
[1]
  ABSOLUTE BASOPHIL: 0 CELLS/uL
  ABSOLUTE EOSINOPHIL: 40 CELLS/uL
  ABSOLUTE LYMPHOCYTE: 13599.5 CELLS/uL
  ABSOLUTE MONOCYTE: 239.33 CELLS/uL
  ABSOLUTE SEGMENTED NEUTROPHIL: 1021.17 CELLS/uL
  BASOPHIL: 0%
  EOSINOPHIL: 0.33%
  ERYTHROCYTE COUNT: 5.71 x10E6/uL
  HEMATOCRIT: 36.35%
  HEMOGLOBIN: 14.05 G/DL
  LEUKOCYTE COUNT: 14.9 x10E3/uL
  LYMPHOCYTE: 91%
  MEAN CORPUSCULAR HEMOGLOBIN: 24.62 pg
  MEAN CORPUSCULAR HEMOGLOBIN CONCENTRATION: 38.65 G/DL
  MEAN CORPUSCULAR VOLUME: 63.7 fL
  MONOCYTE: 1.5%
  NEUTROPHIL: 7.17%
  NUCLEATED RED BLOOD CELLS: 0.33 /100WBC
  PLATELET COUNT: 1225.5 x10E3/uL
  ALANINE AMINOTRANSFERASE: 48.5 u/L
  ALBUMIN: 4.18 G/DL
  ALKALINE PHOSPHATASE: 390.83 u/L
  ASPARTATE AMINOTRANSFERASE: 89 u/L
  BLOOD UREA NITROGEN: 14.83 mg/dL
  CARBON DIOXIDE: 24.83 mmol/L
  CHLORIDE: 100.83 MEQ/L
  CHOLESTEROL: 72.5 mg/dL
  CREATINE PHOSPHOKINASE: 503 u/L
  CREATININE: 0.2 mg/dL
  GLUCOSE: 163 mg/dL
  LACTATE DEHYDROGENASE: 316.83 u/L
  LIPASE: 9.83 u/L
  PHOSPHORUS: 11.57 mg/dL
  POTASSIUM: 6.16 MEQ/L
  SODIUM: 142.62 MEQ/L
  TOTAL BILIRUBIN: 0.2 mg/dL
  TOTAL PROTEIN: 5.8 G/DL
  URIC ACID: 1.65 mg/dL
[2]
  ABSOLUTE BASOPHIL: 0 CELLS/uL
  ABSOLUTE EOSINOPHIL: 21 CELLS/uL
  ABSOLUTE LYMPHOCYTE: 14288.5 CELLS/uL
  ABSOLUTE MONOCYTE: 205.33 CELLS/uL
  ABSOLUTE SEGMENTED NEUTROPHIL: 968.5 CELLS/uL
  BASOPHIL: 0%
  EOSINOPHIL: 0.17%
  ERYTHROCYTE COUNT: 5.83 x10E6/uL
  HEMATOCRIT: 36.53%
  HEMOGLOBIN: 14.4 G/DL
  LEUKOCYTE COUNT: 15.48 x10E3/uL
  LYMPHOCYTE: 92%
  MEAN CORPUSCULAR HEMOGLOBIN: 24.72 pg
  MEAN CORPUSCULAR HEMOGLOBIN CONCENTRATION: 39.43 G/DL
  MEAN CORPUSCULAR VOLUME: 62.68 fL
  MONOCYTE: 1.33%
  NEUTROPHIL: 6.5%
  NUCLEATED RED BLOOD CELLS: 0.17 /100WBC
  PLATELET COUNT: 1280.5 x10E3/uL
  ALANINE AMINOTRANSFERASE: 50 u/L
  ALBUMIN: 4.28 G/DL
  ALKALINE PHOSPHATASE: 380.17 u/L
  ASPARTATE AMINOTRANSFERASE: 82.67 u/L
  BLOOD UREA NITROGEN: 15.33 mg/dL
  CARBON DIOXIDE: 27.17 mmol/L
  CHLORIDE: 100.33 MEQ/L
  CHOLESTEROL: 60.67 mg/dL
  CREATINE PHOSPHOKINASE: 441.5 u/L
  CREATININE: 0.16 mg/dL
  GLUCOSE: 146 mg/dL
  LACTATE DEHYDROGENASE: 189.33 u/L
  LIPASE: 9.17 u/L
  PHOSPHORUS: 11.67 mg/dL
  POTASSIUM: 6.86 MEQ/L
  SODIUM: 142.33 MEQ/L
  TOTAL BILIRUBIN: 0.2 mg/dL
  TOTAL PROTEIN: 6.12 G/DL
  URIC ACID: 1.82 mg/dL
[3]
  ABSOLUTE BASOPHIL: 0 CELLS/uL
  ABSOLUTE EOSINOPHIL: 0 CELLS/uL
  ABSOLUTE LYMPHOCYTE: 14688.33 CELLS/uL
  ABSOLUTE MONOCYTE: 111.67 CELLS/uL
  ABSOLUTE SEGMENTED NEUTROPHIL: 1900 CELLS/uL
  BASOPHIL: 0%
  EOSINOPHIL: 0%
  ERYTHROCYTE COUNT: 6.18 x10E6/uL
  HEMATOCRIT: 38.13%
  HEMOGLOBIN: 14.43 G/DL
  LEUKOCYTE COUNT: 16.7 x10E3/uL
  LYMPHOCYTE: 87.67%
  MEAN CORPUSCULAR HEMOGLOBIN: 23.37 pg
  MEAN CORPUSCULAR HEMOGLOBIN CONCENTRATION: 37.87 G/DL
  MEAN CORPUSCULAR VOLUME: 61.8 fL
  MONOCYTE: 0.67%
  NEUTROPHIL: 11.67%
  NUCLEATED RED BLOOD CELLS: 0.33 /100WBC
  PLATELET COUNT: 1460 x10E3/uL
  ALANINE AMINOTRANSFERASE: 62 u/L
  ALBUMIN: 4.23 G/DL
  ALKALINE PHOSPHATASE: 425.33 u/L
  ASPARTATE AMINOTRANSFERASE: 90.33 u/L
  BLOOD UREA NITROGEN: 16.67 mg/dL
  CARBON DIOXIDE: 27.67 mmol/L
  CHLORIDE: 100.33 MEQ/L
  CHOLESTEROL: 70 mg/dL
  CREATINE PHOSPHOKINASE: 270.33 u/L
  CREATININE: 0.23 mg/dL
  GLUCOSE: 150.67 mg/dL
  LACTATE DEHYDROGENASE: 189.67 u/L
  LIPASE: 9.33 u/L
  PHOSPHORUS: 11.87 mg/dL
  POTASSIUM: 7.16 MEQ/L
  SODIUM: 144.07 MEQ/L
  TOTAL BILIRUBIN: 0.27 mg/dL
  TOTAL PROTEIN: 5.93 G/DL
  URIC ACID: 1.67 mg/dL
